Measured values reported in patent publication US20080121012A1, “Electrode Calibration” (priority 2004, published 2008).

Key:
[1] = cited from earlier work
[2] = Detection of CO release using the myoglobin assay (conversion of deoxy-Mb to MbCO); assay type: physicochemical
Protocol: The release of CO from CORM-A1 (Na2[H3BCOO]) was assessed spectrophotometrically by measuring the conversion of deoxymyoglobin (deoxy-Mb) to carbonmonoxy myoglobin (MbCO) in a manner previously reported (refs. 3, 4, 5). A small aliquot of CORM-A1 (60 μM final concentration) was added to 1 ml deoxy-Mb (≈53 μM) in phosphate buffer and changes in the Mb spectra were recorded over time. The amount of MbCO formed was quantified by measuring the absorbance at 540 nm (extinction coefficient=[…]). In order to examine the effect of pH on the rate of CO liberation from CORM-A1, experiments were conducted using solutions of myoglobin in 0.04 M phosphate buffer prepared at different pHs (7.4, 7.0, 6.5 and 5.5). The amount of MbCO formed was plotted over time and the half-life of CORM-A1 at different pHs and temperatures was calculated from the fitted curves.
The conversion of deoxy-Mb to MbCO can be followed over time by measuring the changes in the absorption spectra of this protein. […] The Mb appears to be fully saturated 2 h after addition of CORM-A1 (see curve with filled diamonds in FIG. 1A). […] Specifically, from the fitted curves shown in FIG. 2A we can calculate that the half-lives of CORM-A1 at 37° C. are as follows: 21 min at pH=7.4; 7.1 min at pH=7.0; 3.3 min at pH=6.5; and 2.5 min at pH=5.5.

[3] = Detection of CO release using an amperometric CO sensor; assay type: physicochemical; settings: 20 μM; for dissociation rate constant of CO / half-life: 37° C.
Excerpt: The release of CO from CORM-A1 was also detected using a prototype electrode purchased from World Precision Instrument (Stevenage, Herts, UK). This CO electrode is a membrane-covered amperometric sensor which has been designed on a basic operating principle similar to the nitric oxide (NO) sensor (ISO-NOP series, World Precision Instruments). The CO sensor can be connected to the ISO-NO Mark II meter for detection of the current signals providing that the poise potential is set to a different value (900 mV for CO as opposed to 860 mV for NO). In principle, CO diffuses through the gas permeable membrane and is then oxidized to CO2 on the working electrode. This oxidation creates a current whose magnitude can be related directly to the concentration of CO in solution. The CO sensor was used to generate standard curves and calculate the rates of CO release from CORM-A1 at different pHs and temperatures. The electrode was immersed into the solutions at different pHs and equilibrated for 30 min prior to addition of CORM-A1. For the experiments conducted at 37, 30, 25 and 20° C., the solutions were maintained at the desired temperature using a Grant W6 thermostat (Cambridge, England).
CORM-A1 was also tested for its ability to liberate CO using an amperometric electrode sensitive to CO. […] A standard curve generated at pH=5.5 using CORM-A1 in a range between 10 and 50 μM indicated a good linear correlation (R^2=0.998) between the concentrations used and the electrode response (FIG. 3B). Therefore, a concentration of 20 μM CORM-A1 was then used to calculate the rate of CO dissociation from CORM-A1 at different pHs and temperatures. […] Specifically, from the curves shown in FIG. 3D, we can calculate that the initial rate of CO release at pH=5.5 is 6.84 μM/min at 37° C., 3.83 μM/min at 30° C., 2.16 μM/min at 25° C. and 1.22 μM/min at 20° C. Thus, the spontaneous liberation of CO from CORM-A1 in aqueous solutions is both pH- and temperature-dependent.

| Molecule | solubility [1] | time until Mb is fully saturated with CO ([2]; 60 μM, 37° C., pH=7.4) | mole of CO formed per mole of compound ([2]; pH=5.5, standard curve) | dissociation rate constant of CO ([3]; pH=4.0) | dissociation rate constant of CO ([3]; pH=5.5) | half-life ([3]; pH=5.5) | dissociation rate constant of CO ([3]; pH=7.4) | half-life ([3]; pH=7.4) | initial rate of CO release ([3]; pH=5.5, 20° C.) | initial rate of CO release ([3]; pH=5.5, 25° C.) | initial rate of CO release ([3]; pH=5.5, 30° C.) | initial rate of CO release ([3]; pH=5.5, 37° C.) |
| --- | --- | --- | --- | --- | --- | --- | --- | --- | --- | --- | --- | --- |
| [C-]#[O+].[C-]#[O+].[C-]#[O+].[C-]#[O+].[C-]#[O+].[C-]#[O+].[C-]#[O+].[C-]#[O+].[C-]#[O+].[C-]#[O+].[Mn].[Mn] [CORM-1, manganese decacarbonyl] | soluble only in organic solvents | – | – | – | – | – | – | – | – | – | – | – |
| [C-]#[O+].[C-]#[O+].[C-]#[O+].[C-]#[O+].[C-]#[O+].[C-]#[O+].[Cl][Ru][Cl].[Cl][Ru][Cl] [CORM-2, tricarbonyldichlororuthenium(II) dimer] | soluble only in organic solvents | – | – | – | – | – | – | – | – | – | – | – |
| sodium boranocarbonate [CORM-A1] | – | 2 h | one | 0.011 s⁻¹ | 0.0058 s⁻¹ | 1.96 min | 0.00055 s⁻¹ | 21.06 min | 1.22 µM/min | 2.16 µM/min | 3.83 µM/min | 6.84 µM/min |
